Patent US20060247266A1, “Nitrogen-containing tricyclic compounds” (Asahi Kasei Pharma Corporation, priority 2004, published 2006)

Legend:
trachea = experiment: Tracheal relaxation action (Test Example 11); set-up: species or system Hartley guinea pigs; conditions: constricted with 10 μM histamine
Description: Hartley guinea pigs (male, 300 to 600 g) were bled to death, and each trachea was extracted. The trachea was first cut on the pair of smooth muscles side along the direction parallel to the smooth muscles, then cut along the cartilage to prepare a sample in the form of a strip having a width of about 2 to 3 mm. After removing […], the sample was suspended with a static load of […] in a Magnus bath containing Krebs-Henseleit solution of 37° C. bubbled with a mixed gas of 95% O2 and 5% CO2. Generated tension was recorded on a recorder via an isometric transducer (FD Pickup TB-612T, Nihon Kohden).
After suspending the sample, and waiting for 1 hour or more until a stable ground line was obtainable, a constriction substance was administered, and then the experiment was started after reproducible constriction was obtainable. During this procedure, the solution in the Magnus bath was changed every about 30 minutes. The sample was constricted with 10 μM histamine, and after the time point that the generated tension was stabilized, a test drug was cumulatively administered at various concentrations to examine change in tension of the sample.

[1] = tested on: respiratory tract constriction induced by ovalbumin; experiment: Action of suppressing respiratory tract constriction induced by antigen stimulation (Test Example 3); type: in vivo, Hartley guinea pigs; conditions: for respiratory tract constriction suppression action by inhalation: 0.1% ovalbumin inhalation, test compound by nebulizer inhalation over 5 minutes; for respiratory tract constriction suppressing action: ovalbumin-immunized guinea pigs, test medicament from cannula in hind leg vein, airway resistance for 15 minutes
[2] = tested on: OVA-induced respiratory tract inflammation; experiment: Chronic respiratory tract inflammation suppressing action (Test Example 7); type: in vivo, BALB/c female mice; conditions: administration by infusion pump once a day for 5 days
Description: According to Henderson, W. R., et al., Am. J. Respir. Cric. Care Med., 165(1), 108-116 (2002), suppressing action on bronchial inflammation was confirmed. BALB/c female mice (7-week old) were used for the test, which were grouped into a negative control group, a positive control group, and a drug administration group. The mice of each group were intraperitoneally administered with ovalbumin (OVA, 100 ng, Sigma) and 1 mg of aluminum hydroxide for initial immunization, and after 2 weeks, they are subcutaneously administered with 10 μg of OVA as additional immunization. In the following experiments, test compounds are used as a solution obtained by dissolving each compound in water containing 0.5% carboxymethylcellulose. […]
Twenty four hours after the final OVA inhalation or inhalation of physiological saline, pulmonary cavities of the test animals were washed with physiological saline containing 1% BSA, and the total infiltrated white blood cells (WBC) were counted. […]
Twenty four hours after the final drug administration, pulmonary cavities of the test animals were washed with physiological saline, and the total infiltrated white blood cells (WBC) were counted.

thoracic aorta = experiment: Vasoconstriction inhibitory action (Test Example 2); set-up: species or system Rats (Wistar); conditions: aorta constricted with phenylephrine (1 μM), test compound (1 μM)
Description: Rats (Wistar, 11-week old) were bleeded to death and laparotomized to take out the thoracic aorta. That aorta was cut into a ring of a length of about 3 mm in a conventional manner (Asano, T., et al., J. Pharmacol. Exp. Ther., 241, pp. 1033-1040 (1987)) and hung in 10-ml organ bath filled with Krebs-Hensright nutrient solution bubbled with a mixed gas of 95% O2 and 5% CO2. One end of the blood vessel was connected to an isometric transducer (FD Pickup TB-912T, Nihon Kohden) and applied with 2.5 g of resting tension, and constriction and relaxation reactions of the aorta were recorded.
The aorta was constricted with phenylephrine (1 μM, Sigma) and then added with a test compound (1 μM), and the vasoconstriction inhibitory action thereof was observed. The vasoconstriction inhibitory actions of the test compounds were calculated as relaxation ratios, which were based on the vasoconstriction with phenylephrine observed immediately before the addition of the test compounds taken as 100%.

[3] = tested on: cerebral hippocampal neurons; experiment: Neurite outgrowth action (Test Example 5); type: cell-based, Sprague-Dawley rats; conditions: neurite length 24 hours after addition
Description: From 18 day-old Sprague-Dawley rats, cerebral hippocampal neurons were prepared according to the method of Neuman et al. (Neuman, H. R. et al., J. Neurosci., 22, pp. 854-862, 2002). The prepared neurons were cultured for 24 hours according to the method of Tanaka et al. (Tanaka, H. et al., J. Cell Biol., 158 (2), pp. 321-329, 2002), then the medium was exchanged with fresh medium, and test medicaments of various concentrations or equivalent amounts of vehicle were added. Twenty-four hours after the addition of the medicaments, neurite length of each neuron was measured for the medicament-added group and the no-addition group, and compared. The neurite length was evaluated according to the method of Neuman et al. (Neuman, H. R. et al., J. Neurosci., 22, pp. 854-862, 2002).

[4] = tested on: lipopolysaccharide-induced inflammation; experiment: Acute respiratory tract inflammation suppressing action (Test Example 8); type: in vivo, BALB/c female mice; conditions: LPS inhalation; for acute respiratory tract inflammation, total infiltrated leucocyte number (WBC): test compound by infusion pump; for acute respiratory tract inflammation, total infiltrated leucocyte (WBC) number: test compound by nebulizer inhalation over 10 minutes
Description: According to Gonzales de Moraes, V L., et al., Br. J. Pharmacol., 123, pp. 631-6, 1998, suppressing action on pulmonary inflammation was studied. BALB/c female mice (7-week old) were used for the test, as the compound administration group and positive control group, each consisting of 7 mice, as well as the negative control group consisting of 5 mice. For induction of inflammation, a 0.03% physiological saline solution of a lipopolysaccharide (LPS, a mixture derived from Escherichia coli O55 and B5 strains, Sigma) was used. A test compound was dissolved in physiological saline to prepare solutions of various concentrations. […] Then, 1 minute after the completion of the inhalation of the lipopolysaccharide solution, the animals were administered with a solution of test compound at various concentrations over 10 minutes by inhalation using the aforementioned nebulizer. The mice of the positive control group were administered with the same volume of physiological saline instead of the test compound solution over 10 minutes by inhalation. The mice of the negative control group were inhaled with physiological saline instead of the lipopolysaccharide solution by inhalation, and then administered with the same volume of physiological saline instead of the test compound solution by inhalation. Three hours after the administration of the test compound, pulmonary cavities of the test animals were washed with physiological saline, and the total infiltrated leucocyte (WBC) number was counted.
Further, after starting the administration of the test compound solution by using an infusion pump, the mice of the drug administration group was inhaled with the lipopolysaccharide solution over 10 minutes by the aforementioned method to induce inflammation. At the same time, the mice of the positive control group were administered with the same volume of physiological saline instead of the test compound, and inflammation was induced by the aforementioned method. For the mice of the negative control group, the same procedure was performed by using physiological saline instead of the test compound, and physiological saline instead of the lipopolysaccharide solution. Three hours after the induction of respiratory tract inflammation, pulmonary cavities of the test animals were washed with physiological saline, and the total infiltrated leucocyte number (WBC) was counted.

[5] = tested on: histamine-induced constriction of respiratory tract; experiment: Action of suppressing respiratory tract constriction induced by constriction elicitor (Test Example 12); type: in vivo, Hartley guinea pigs; conditions: 100 μl test compound solution sprayed onto the respiratory tract
intraocular pressure [6] = experiment: Intraocular pressure reduction enhancing action, combination with jointly-used drug (Test Example 13, rabbits); type: in vivo; conditions: jointly-used drug isopropylunoprostone, dorzolamide hydrochloride, bunazosin hydrochloride or timolol maleate
Description: For evaluation of intraocular pressure reduction enhancing action of a combination of the compound of the present invention and a jointly-used drug other than latanoprost, rabbits were used as experimental animals, and for evaluation of intraocular pressure reduction enhancing action of a combination of the compound of the present invention and latanoprost, monkeys were used. Naturalization of the rabbits, method for measuring intraocular pressure, and preparation of liquid for eye drop were according to those of Test Example 4. The rabbits were divided into a control group, instillation group for test compound solution alone (single active ingredient preparation group 1), instillation group for jointly-used drug alone (single active ingredient preparation group 2), and instillation group for jointly-used drug and test compound solution (combination use group). After initial values of intraocular pressure of the rabbits in each group were measured, 50 μL of a test compound solution in physiological saline at various concentrations was dropped to the eyes of the rabbits of the single active ingredient preparation group 1 and the combination use group, and physiological saline of the same volume was dropped to the eyes of the rabbits of the control group and the single active ingredient preparation group 2. […] Then, the intraocular pressure was measured in time course for each group. […]

intraocular pressure [7] = experiment: Intraocular pressure reducing action (Test Example 4); type: in vivo, Japanese white rabbit; conditions: 50 μl of aqueous solution dropped to the left eye
Description: A Japanese white rabbit having a body weight of about 2 kg was placed in a positioner and naturalized for one week before the experiment. An ophthalmologic local anesthesant (Benoxil) was administered to the left eye, and then intraocular pressure was measured by using a tonometer (Classic 30, Solan). The initial value of the intraocular pressure was measured, then 50 μl of an aqueous solution of a test compound was dropped to the left eye at various concentrations, and the intraocular pressure was measured with passage of time.

Structure (SMILES) | suppression of constriction of the trachea sample (trachea) | respiratory tract constriction suppression action by inhalation [1] | respiratory tract constriction suppressing action [1] | chronic respiratory tract inflammation, total infiltrated white blood cells (WBC) [2] | vasoconstriction inhibitory action (thoracic aorta) | neurite outgrowth [3] | acute respiratory tract inflammation, total infiltrated leucocyte number (WBC) [4] | acute respiratory tract inflammation, total infiltrated leucocyte (WBC) number [4] | suppression of constriction of respiratory tract induced by histamine [5] | intraocular pressure reducing action, combination use group versus single active ingredient preparation groups 1 and 2 (intraocular pressure [6]) | intraocular pressure reducing action (intraocular pressure [7])
FC1CNCCC1N1CCc2cncc3cccc1c23 (stereo not shown) | significantly suppressed constriction of the trachea sample | significantly improved the constriction of respiratory tract | significant respiratory tract constriction suppressing action | significantly improved the pathological conditions | had vasoconstriction inhibitory action | induced significant neurite outgrowth | significantly improved the pathological conditions | significantly improved the pathological conditions | significantly suppressed the constriction of respiratory tract | Enhancement of the intraocular pressure reducing action was also confirmed | significant intraocular pressure reducing action
CN(CCO)C1CCC(N2CCc3cncc4cccc2c34)CC1 (stereo not shown) | significantly suppressed constriction of the trachea sample | significantly improved the constriction of respiratory tract | significant respiratory tract constriction suppressing action | significantly improved the pathological conditions | had vasoconstriction inhibitory action | induced significant neurite outgrowth | significantly improved the pathological conditions | significantly improved the pathological conditions | significantly suppressed the constriction of respiratory tract | Enhancement of the intraocular pressure reducing action was also confirmed | significant intraocular pressure reducing action
